ChEMBL document CHEMBL1155768, “Dexamethasone as adjuvant therapy to moxifloxacin attenuates valve destruction in experimental aortic valve endocarditis due to Staphylococcus aureus” (Antimicrob Agents Chemother, 2007)
Values after ≈ are worked out from the molar mass of the structure shown. Active and inactive are the calls of the source. The rule behind the calls is not given here.

Key:
Staphylococcus aureus [1] = experiment: Antibacterial activity against Staphylococcus aureus by manual microdilution technique; type: functional
Staphylococcus aureus [2] = experiment: Antibacterial activity against Staphylococcus aureus at 0.5 mg/liter by time kill assay; type: functional
Staphylococcus aureus [3] = experiment: Antibacterial activity against Staphylococcus aureus by Etest; type: functional
Staphylococcus aureus [4] = experiment: Antibacterial activity against Staphylococcus aureus infection-induced aortic valve endocarditis in rabbit assessed as number of survival days at 20 mg/kg, iv administered every 12 hrs for 5 days; type: functional, Aorta
Staphylococcus aureus [5] = experiment: Antibacterial activity against Staphylococcus aureus infection-induced aortic valve endocarditis in rabbit assessed as cured animals in blood culture at 20 mg/kg, iv administered every 12 hrs for 5 days sacrificed 12 hrs after end of treatment; type: functional, organism-based; parameters: dose 20 mg/kg
Staphylococcus aureus [6] = experiment: Antibacterial activity against Staphylococcus aureus infection-induced aortic valve endocarditis in rabbit assessed as reduction in bacterial burdens in blood culture at 20 mg/kg, iv administered every 12 hrs for 5 days sacrificed 12 hrs after end of treatment; type: functional
Staphylococcus aureus [7] = experiment: Antibacterial activity against Staphylococcus aureus infection-induced aortic valve endocarditis in rabbit assessed as cured animals in blood culture at 20 mg/kg, iv administered every 12 hrs for 5 days sacrificed 12 days after last dose; type: functional, organism-based; parameters: dose 20 mg/kg
Staphylococcus aureus [8] = experiment: Antibacterial activity against Staphylococcus aureus infection-induced aortic valve endocarditis in rabbit assessed as reduction in bacterial burdens in blood culture at 20 mg/kg, iv administered every 12 hrs for 5 days sacrificed 12 days after last dose; type: functional
Staphylococcus aureus [9] = experiment: Antibacterial activity against Staphylococcus aureus infection-induced aortic valve endocarditis in rabbit assessed as reduction in bacterial burdens in heart valve tissue culture at 20 mg/kg, iv administered every 12 hrs for 5 days sacrificed 12 hrs after end of treatment; type: functional, Aorta
Staphylococcus aureus [10] = experiment: Antibacterial activity against Staphylococcus aureus infection-induced aortic valve endocarditis in rabbit assessed as reduction in bacterial burdens in heart valve tissue culture at 20 mg/kg, iv administered every 12 hrs for 5 days sacrificed 12 days after last dose; type: functional, Aorta
[11] = Concentration in Staphylococcus aureus infection-induced aortic valve endocarditis rabbit serum at 20 mg/kg, iv administered every 12 hrs measured 30 mins after third dose; type: ADME, organism-based, Oryctolagus cuniculus; parameters: dose 20 mg/kg, route intravenous; conditions: read-out: Drug uptake
[12] = Concentration in Staphylococcus aureus infection-induced aortic valve endocarditis rabbit serum at 20 mg/kg, iv administered every 12 hrs measured 12 hrs after third dose; type: ADME, organism-based, Oryctolagus cuniculus; parameters: dose 20 mg/kg, route intravenous; conditions: read-out: Drug uptake
[13] = AUC (0 to 12 hrs) in Staphylococcus aureus infection-induced aortic valve endocarditis rabbit at 20 mg/kg, iv administered every 12 hrs measured after third dose; type: ADME, organism-based, Oryctolagus cuniculus; parameters: time < 12 hr, dose 20 mg/kg, route intravenous; conditions: plasma
[14] = AUC (0 to 12 hrs) in Staphylococcus aureus infection-induced aortic valve endocarditis rabbit at 20 mg/kg, iv administered every 12 hrs measured after seventh dose; type: ADME, organism-based, Oryctolagus cuniculus; parameters: time < 12 hr, dose 20 mg/kg, route intravenous; conditions: plasma
[15] = Concentration in Staphylococcus aureus infection-induced aortic valve endocarditis rabbit serum at 20 mg/kg, iv administered every 12 hrs measured 30 mins after seventh dose in presence of Dexamethasone; type: ADME, organism-based, Oryctolagus cuniculus; parameters: dose 20 mg/kg, route intravenous; conditions: read-out: Drug uptake
[16] = Concentration in Staphylococcus aureus infection-induced aortic valve endocarditis rabbit serum at 20 mg/kg, iv administered every 12 hrs measured 12hrs after seventh dose in presence of Dexamethasone; type: ADME, organism-based, Oryctolagus cuniculus; parameters: dose 20 mg/kg, route intravenous; conditions: read-out: Drug uptake
[17] = AUC (0 to 12 hrs) in Staphylococcus aureus infection-induced aortic valve endocarditis rabbit at 20 mg/kg, iv administered every 12 hrs measured after seventh dose in presence of Dexamethasone; type: ADME, organism-based, Oryctolagus cuniculus; parameters: time < 12 hr, dose 20 mg/kg, route intravenous; conditions: plasma
Staphylococcus aureus [18] = experiment: Cardiovascular activity in Staphylococcus aureus infection-induced aortic valve endocarditis rabbit assessed as increase in fractional shortening at 20 mg/kg, iv administered every 12 hrs for 5 days […]; type: functional, organism-based; parameters: dose 20 mg/kg
Oryctolagus cuniculus [19] = experiment: Toxicity in Staphylococcus aureus infection-induced aortic valve endocarditis rabbit assessed as tissue valve damage median score at 20 mg/kg, iv administered every 12 hrs for 5 days sacrificed 12 days after last dose by histopathology; type: organism-based; parameters: dose 20 mg/kg, route intravenous; conditions: in vivo
Oryctolagus cuniculus [20] = experiment: Toxicity in Staphylococcus aureus infection-induced aortic valve endocarditis rabbit assessed as inflammatory cell infiltration median score at 20 mg/kg, iv administered every 12 hrs for 5 days sacrificed 12 days after last dose by histopathology; type: organism-based; parameters: dose 20 mg/kg, route intravenous; conditions: in vivo, 288 h
Oryctolagus cuniculus [21] = experiment: Toxicity in Staphylococcus aureus infection-induced aortic valve endocarditis rabbit assessed as collagenization median score at 20 mg/kg, iv administered every 12 hrs for 5 days sacrificed 12 days after last dose by histopathology; type: organism-based; parameters: dose 20 mg/kg, route intravenous; conditions: in vivo, 288 h
Oryctolagus cuniculus [22] = experiment: Toxicity in Staphylococcus aureus infection-induced aortic valve endocarditis rabbit assessed as fibrous content median score at 20 mg/kg, iv administered every 12 hrs for 5 days sacrificed 12 days after last dose by histopathology; type: organism-based; parameters: dose 20 mg/kg, route intravenous; conditions: in vivo, 288 h
Oryctolagus cuniculus [23] = experiment: Toxicity in Staphylococcus aureus infection-induced aortic valve endocarditis rabbit assessed as calcification median score at 20 mg/kg, iv administered every 12 hrs for 5 days sacrificed 12 days after last dose by histopathology; type: organism-based; parameters: dose 20 mg/kg, route intravenous; conditions: in vivo, 288 h
[24] = Drug level in Staphylococcus aureus infection-induced aortic valve endocarditis rabbit serum at 20 mg/kg, iv administered every 12 hrs measured 30 mins after seventh dose; type: ADME, organism-based, Oryctolagus cuniculus; parameters: dose 20 mg/kg, route intravenous; conditions: read-out: Drug uptake
[25] = Drug level in Staphylococcus aureus infection-induced aortic valve endocarditis rabbit serum at 20 mg/kg, iv administered every 12 hrs measured 12 hrs after seventh dose; type: ADME, organism-based, Oryctolagus cuniculus; parameters: dose 20 mg/kg, route intravenous; conditions: read-out: Drug uptake

**Q.** Which results are given for `CC1(C)S[C@@H]2[C@H](NC(=O)[C@H](N)c3ccc(O)cc3)C(=O)N2[C@H]1C(=O)O` [AMOXICILLIN]?
**A.** MBC (Staphylococcus aureus [1]): 4 µg/mL (≈ 10.9 µM); MIC (Staphylococcus aureus [1]): 2 µg/mL (≈ 5.47 µM)

**Q.** What does the source list for `COc1c(N2C[C@@H]3CCCN[C@@H]3C2)c(F)cc2c(=O)c(C(=O)O)cn(C3CC3)c12` [MOXIFLOXACIN]?
**A.** MBC (Staphylococcus aureus [1]): 0.125 µg/mL (≈ 0.311 µM); MIC (Staphylococcus aureus [1]): 0.125 µg/mL (≈ 0.311 µM); log10CFU/ml (Staphylococcus aureus [2]): >3; MIC (Staphylococcus aureus [3]): 0.064 µg/mL (≈ 0.159 µM); Survival (Staphylococcus aureus [4]): 15.3 days; Activity (Staphylococcus aureus [5]): Active; log10CFU/ml (Staphylococcus aureus [6]): 2.83; Activity (Staphylococcus aureus [7]): Active; log10CFU/ml (Staphylococcus aureus [8]): 2.76 log10 CFU/ml; log10CFU/g (Staphylococcus aureus [9]): 2.1; log10CFU/g (Staphylococcus aureus [10]): 2.2; concentration at 0.5 h [11]: 3730 ng/mL; concentration at 12 h [12]: 230 ng/mL; AUC at 12 h [13]: 16500 ng·h/mL; AUC at 12 h [14]: 22200 ng·h/mL; concentration at 0.5 h [15]: 3330 ng/mL; concentration at 12 h [16]: 1000 ng/mL; AUC at 12 h [17]: 23900 ng·h/mL; Activity (Staphylococcus aureus [18]): Active; Activity (Oryctolagus cuniculus [19]): 2.3; Activity (Oryctolagus cuniculus [20]): 1.2; Activity (Oryctolagus cuniculus [21]): 2; Activity (Oryctolagus cuniculus [22]): 1.6; Activity (Oryctolagus cuniculus [23]): 1.6; concentration at 0.5 h [24]: 4390 ng/mL; concentration at 12 h [25]: 510 ng/mL

**Q.** With `Cc1onc(-c2ccccc2)c1C(=O)N[C@@H]1C(=O)N2[C@@H]1SC(C)(C)[C@@H]2C(=O)O` [OXACILLIN] as the compound, how does the MBC (Staphylococcus aureus [1]) read?
**A.** Its MBC is 0.5 µg/mL (≈ 1.25 µM).

**Q.** What about the MIC (Staphylococcus aureus [1]) of the same compound?
**A.** Its MIC is no more than 0.25 µg/mL.
